Measurements taken from ChEMBL document CHEMBL3046726, “Cytotoxic and genotoxic potentials of newly synthesized antiviral aminopyrazoloquinoline derivatives” (Med Chem Res, 2008).

Columns and labels:
MCF-10A [1] = test: Induction of apoptosis in Homo sapiens (human) MCF10A cells at 100 uM after 72 hr by flow cytometry; type: cell-based
MCF7 [2] = test: Cell cycle arrest in Homo sapiens (human) MCF7 cells at 10 uM after 72 hr by flow cytometry; type: ADME, cell-based; conditions: mcf7, 72 h
MDA-MB-231 [3] = test: Cell cycle arrest in Homo sapiens (human) MDA-MB-231 cells at 10 uM after 72 hr by flow cytometry; type: ADME, cell-based; conditions: mda-mb-231, 72 h
MCF-12A [4] = test: Cell cycle arrest in Homo sapiens (human) MCF12A cells at 10 uM after 72 hr by flow cytometry; type: ADME, cell-based
MDA-MB-231 [5] = test: Induction of apoptosis in Homo sapiens (human) MDA-MB-231 cells at 10 uM after 72 hr by flow cytometry; type: cell-based; conditions: mda-mb-231, 72 h
MCF-12A [6] = test: Induction of apoptosis in Homo sapiens (human) MCF12A cells at 10 uM after 72 hr by flow cytometry; type: cell-based
MCF7 [7] = test: Induction of apoptosis in Homo sapiens (human) MCF7 cells at 10 uM after 72 hr by flow cytometry; type: cell-based; conditions: mcf7, 72 h
MDA-MB-231 [8] = test: Cytotoxicity against Homo sapiens (human) MDA-MB-231 cells at 10 uM after 72 hr; type: cell-based; conditions: mda-mb-231, 72 h
MCF-12A [9] = test: Cytotoxicity against Homo sapiens (human) MCF12A cells at 10 uM after 72 hr; type: cell-based
MCF7 [10] = test: Cytotoxicity against Homo sapiens (human) MCF7 cells at 10 uM after 72 hr; type: cell-based; conditions: mcf7, 72 h
MDA-MB-231 [11] = test: Cell cycle arrest in Homo sapiens (human) MDA-MB-231 cells assessed as accumulation at G2/M phase at 100 uM after 72 hr by flow cytometry; type: ADME, cell-based; conditions: mda-mb-231, 72 h
MCF7 [12] = test: Cell cycle arrest in Homo sapiens (human) MCF7 cells assessed as accumulation at G2/M phase at 100 uM after 72 hr by flow cytometry; type: ADME, cell-based; conditions: mcf7, 72 h
MCF-12A [13] = test: Cell cycle arrest in Homo sapiens (human) MCF12A cells assessed as accumulation at G2/M phase at 100 uM after 72 hr by flow cytometry; type: ADME, cell-based
MCF-10A [14] = test: Cell cycle arrest in Homo sapiens (human) MCF10A cells assessed as accumulation at G2/M phase at 100 uM after 72 hr by flow cytometry; type: ADME, cell-based
MDA-MB-231 [15] = test: Induction of apoptosis in Homo sapiens (human) MDA-MB-231 cells at 100 uM after 72 hr by flow cytometry; type: cell-based; conditions: mda-mb-231, 72 h
MCF7 [16] = test: Induction of apoptosis in Homo sapiens (human) MCF7 cells at 100 uM after 72 hr by flow cytometry; type: cell-based; conditions: mcf7, 72 h
MCF-12A [17] = test: Induction of apoptosis in Homo sapiens (human) MCF12A cells at 100 uM after 72 hr by flow cytometry; type: cell-based
MDA-MB-231 [18] = test: Cell cycle arrest in Homo sapiens (human) MDA-MB-231 cells assessed as accumulation at G2/M phase at 50 uM after 72 hr by flow cytometry; type: ADME, cell-based; conditions: mda-mb-231, 72 h
MCF7 [19] = test: Cell cycle arrest in Homo sapiens (human) MCF7 cells assessed as accumulation at G2/M phase at 50 uM after 72 hr by flow cytometry; type: ADME, cell-based; conditions: mcf7, 72 h
MCF-12A [20] = test: Cell cycle arrest in Homo sapiens (human) MCF12A cells assessed as accumulation at G2/M phase at 50 uM after 72 hr by flow cytometry; type: ADME, cell-based
MCF-10A [21] = test: Cell cycle arrest in Homo sapiens (human) MCF10A cells assessed as accumulation at G2/M phase at 50 uM after 72 hr by flow cytometry; type: ADME, cell-based
MDA-MB-231 [22] = test: Induction of apoptosis in Homo sapiens (human) MDA-MB-231 cells at 50 uM after 72 hr by flow cytometry; type: cell-based; conditions: mda-mb-231, 72 h
MCF7 [23] = test: Induction of apoptosis in Homo sapiens (human) MCF7 cells at 50 uM after 72 hr by flow cytometry; type: cell-based; conditions: mcf7, 72 h
MCF-12A [24] = test: Induction of apoptosis in Homo sapiens (human) MCF12A cells at 50 uM after 72 hr by flow cytometry; type: cell-based
MCF-10A [25] = test: Induction of apoptosis in Homo sapiens (human) MCF10A cells at 50 uM after 72 hr by flow cytometry; type: cell-based
MCF7 [26] = test: Induction of BP-DNA adduct formation in Homo sapiens (human) MCF7 cells at 100 uM after 24 hr by 32P-postlabeling technique relative to control; type: cell-based; conditions: mcf7, 24 h
MDA-MB-231 [27] = test: Genotoxicity in Homo sapiens (human) MDA-MB-231 cells assessed as reduction of BP-DNA adduct formation at 100 uM after 24 hr by 32P-postlabeling technique; type: toxicity, cell-based; parameters: scale not given: the % may be the effect or the level left; conditions: mda-mb-231, 24 h
MCF-12A [28] = test: Genotoxicity in Homo sapiens (human) MCF12A cells assessed as reduction of BP-DNA adduct formation at 100 uM after 24 hr by 32P-postlabeling technique; type: toxicity, cell-based; parameters: scale not given: the % may be the effect or the level left
MCF7 [29] = test: Cytotoxicity against Homo sapiens (human) MCF7 cells at 100 uM after 72 hr; type: cell-based; conditions: mcf7, 72 h
MCF-10A [30] = test: Cytotoxicity against Homo sapiens (human) MCF10A cells at 100 uM after 72 hr; type: cell-based
MCF-12A [31] = test: Cytotoxicity against Homo sapiens (human) MCF12A cells at 100 uM after 72 hr; type: cell-based
MDA-MB-231 [32] = test: Cytotoxicity against Homo sapiens (human) MDA-MB-231 cells at 50 uM after 72 hr; type: cell-based; conditions: mda-mb-231, 72 h
MCF7 [33] = test: Cytotoxicity against Homo sapiens (human) MCF7 cells at 50 uM after 72 hr; type: cell-based; conditions: mcf7, 72 h
MCF-10A [34] = test: Cytotoxicity against Homo sapiens (human) MCF10A cells at 50 uM after 72 hr; type: cell-based
MCF-12A [35] = test: Cytotoxicity against Homo sapiens (human) MCF12A cells at 50 uM after 72 hr; type: cell-based
MDA-MB-231 [36] = test: Cytotoxicity against Homo sapiens (human) MDA-MB-231 cells at 100 uM after 72 hr; type: cell-based; conditions: mda-mb-231, 72 h

Row | Structure (SMILES) | Activity (MCF-10A [1]) | Activity (MCF7 [2]) | Activity (MDA-MB-231 [3]) | Activity (MCF-12A [4]) | Activity (MDA-MB-231 [5]) | Activity (MCF-12A [6]) | Activity (MCF7 [7]) | Activity (MDA-MB-231 [8]) | Activity (MCF-12A [9]) | Activity (MCF7 [10]) | Activity (MDA-MB-231 [11]) | Activity (MCF7 [12]) | Activity (MCF-12A [13]) | Activity (MCF-10A [14]) | Activity (MDA-MB-231 [15]) | Activity (MCF7 [16]) | Activity (MCF-12A [17]) | Activity (MDA-MB-231 [18]) | Activity (MCF-12A [20]) | Activity (MCF-10A [21]) | also measured
1 | Nc1[nH]nc2nc3ccccc3cc12 | Toxic | Non-toxic | Non-toxic | Non-toxic | Non-toxic | Non-toxic | Non-toxic | Non-toxic | Non-toxic | Non-toxic | Non-toxic | Non-toxic | Non-toxic | Non-toxic | Non-toxic | Non-toxic | Toxic | – | – | – | –
2 | Cc1ccc2cc3c(N)[nH]nc3nc2c1 | Toxic | Non-toxic | Non-toxic | Non-toxic | Non-toxic | Non-toxic | Non-toxic | Non-toxic | Non-toxic | Non-toxic | Non-toxic | Non-toxic | Non-toxic | Non-toxic | Non-toxic | Non-toxic | Toxic | Non-toxic | Non-toxic | Non-toxic | Activity (MCF7 [19]): Non-toxic; Activity (MDA-MB-231 [22]): Non-toxic; Activity (MCF7 [23]): Non-toxic; Activity (MCF-12A [24]): Toxic; Activity (MCF-10A [25]): Toxic; fold change (FC) (MCF7 [26]): 3.5
3 | COc1ccc2cc3c(N)n[nH]c3nc2c1 | – | Non-toxic | Non-toxic | Non-toxic | Non-toxic | Non-toxic | Non-toxic | Non-toxic | Non-toxic | Non-toxic | – | – | – | – | 80% | 15% | – | 35% | 20% | 20% | Activity (MCF7 [23]): 10%; Activity (MCF-12A [24]): 30%; Activity (MCF-10A [25]): 5%; fold change (FC) (MCF7 [26]): 2; Activity (MDA-MB-231 [27]): > 60%; Activity (MCF-12A [28]): 40%; Activity (MCF7 [29]): 50%; Activity (MCF-10A [30]): 90%; Activity (MCF-12A [31]): 90%; Activity (MDA-MB-231 [32]): 30%; Activity (MCF7 [33]): 30%; Activity (MCF-10A [34]): 20%; Activity (MCF-12A [35]): 20%
4 | Nc1nc2c(ncn2COCCO)c(=O)[nH]1 [ACYCLOVIR] | Non-toxic | Non-toxic | Non-toxic | Non-toxic | Non-toxic | Non-toxic | Non-toxic | Non-toxic | Non-toxic | Non-toxic | Non-toxic | Non-toxic | Non-toxic | Non-toxic | Non-toxic | Non-toxic | Non-toxic | Non-toxic | Non-toxic | Non-toxic | Activity (MCF7 [19]): Non-toxic; Activity (MDA-MB-231 [22]): Non-toxic; Activity (MCF7 [23]): Non-toxic; Activity (MCF-12A [24]): Non-toxic; Activity (MCF-10A [25]): Non-toxic; Activity (MDA-MB-231 [36]): Non-toxic; Activity (MCF7 [29]): Non-toxic; Activity (MCF-10A [30]): Non-toxic; Activity (MCF-12A [31]): Non-toxic; Activity (MDA-MB-231 [32]): Non-toxic; Activity (MCF7 [33]): Non-toxic; Activity (MCF-10A [34]): Non-toxic; Activity (MCF-12A [35]): Non-toxic
